IC50 and inhibition data for nine compounds are collected here from the Kinase Knowledgebase extract (Sharma et al. 2016).

Each structure is given as a SMILES string.

For the first experiment, the target named is MAPK14 (human) (UniProt Q16539). Kind of experiment: LPS Induced TNF-alpha Production Inhibition (THP1 Cells).
MAPK14 (human), sequence (Q16539 whole entry, looked up): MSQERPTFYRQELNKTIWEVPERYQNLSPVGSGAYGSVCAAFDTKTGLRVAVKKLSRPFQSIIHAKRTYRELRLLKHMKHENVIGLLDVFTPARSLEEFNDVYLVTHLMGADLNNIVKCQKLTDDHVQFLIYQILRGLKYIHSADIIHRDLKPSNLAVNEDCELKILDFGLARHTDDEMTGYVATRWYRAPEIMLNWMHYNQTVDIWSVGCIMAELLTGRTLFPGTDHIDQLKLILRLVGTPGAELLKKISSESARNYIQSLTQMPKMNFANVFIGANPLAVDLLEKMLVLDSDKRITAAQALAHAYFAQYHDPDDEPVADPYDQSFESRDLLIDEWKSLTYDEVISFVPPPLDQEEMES
Conditions: not given
What is called IC50 is the midpoint of a concentration-inhibition curve. Low values mean greater potency, high ones weaker potency. `Fc1ccc(-c2c(-c3ccncc3)n(CCN3CCCCC3)c3cccnc23)cc1` came in with a half-maximal inhibitory concentration (IC50) of 0.3 nM. That is a sub-nanomolar value.
The compound `Fc1ccc(-c2c(-c3ccncc3)n(OCCN3CCCC3)c3cccnc23)cc1` registered an IC50 of 0.12 nM. Against the preceding compound, the IC50 is about 2.5-fold lower.
On the same count and under the same terms, next, `Fc1ccc(-c2c(-c3ccncc3)[nH]c3nccnc23)cc1`: 1100 nM; `OCCNc1cc(-c2[nH]c3nccnc3c2-c2ccc(F)cc2)ccn1`: 241 nM.
On to `N#CCCCn1c(-c2ccncc2)c(-c2ccc(F)cc2)c2nccnc21`, for which the 50% inhibitory concentration (IC50) is 8830 nM.
For `COn1c(-c2ccncc2)c(-c2ccc(F)cc2)c2ncccc21`, the IC50 worked out at 0.46 nM.

In another experiment the test system is MAPK14 (Balb/c mice). Kind of experiment: LPS Induced TNF-alpha Prodcution Inhibition (BALB/c Mice). The note with it: dose or concentration not given here.
One may read the inhibition as the percentage by which the read-out fell short of the control. The low end stands for a response near the control, the high end for a response far below the control. As for `Fc1ccc(-c2c(-c3ccncc3)[nH]c3cccnc23)cc1`, the inhibition worked out at 68%.
With `Fc1ccc(-c2c(-c3ccncc3)oc3cccnc23)cc1`, the inhibition worked out at 86%.
As for `Fc1ccc(-c2c(-c3ccncc3)n(OCCN3CCOCC3)c3cccnc23)cc1`, the inhibition amounted to 56%.
`COn1c(-c2ccncc2)c(-c2ccc(F)cc2)c2ncccc21` displayed an inhibition of 75%.
